Counter-ions that a name gives are not always drawn.
How the values were obtained:
MET (human) = MET (human) (Homo sapiens, UniProt P08581); test: MET kinase AlphaScreen assay (Km of ATP); format: biochemical; conditions: ATP at Km; at least duplicate experiments
Procedure: (§1) Person skilled in the art will appreciate that a variety of assay formats may be used to determine the activity of the compounds of this invention. For example, AlphaScreen (Amplified Luminescent Proximity Homogeneous Assay) technology was used with the kinases described below. Assay ATP concentrations for individual kinases are included in the text.
MET (human)—Km of ATP: MET assay is performed in a 384 well assay containing 200 ng/μL biotinylated poly(Glu,Tyr), 0.334 mM vanadate, desired concentration of ATP optimized for the enzyme in assay buffer (50 mM HEPES (pH=7.4), 5 mM MgCl2, 5 mM MnCl2, and 1% glycerol). Desired compound is added in a final concentration of 1% DMSO with control being vehicle of DMSO alone. MET is diluted to the optimized concentration (optimized on a lot-by-lot basis) in an enzyme diluent buffer (50 mM Tris pH=7.4, 1% glycerol, 0.03% Brij35, 0.24 mM EGTA, 1 mM DTT, and 0.003% BSA). Enzyme is added to initiate the reaction and incubated for 60 min at RT. In subdued light, appropriate amount of PT66 donor and acceptor beads (diluted 1:260 from manufacturer's provision in a 25 mM Tris HCl (pH=7.5), 400 mM NaCl, 100 mM EDTA, 0.3% BSA buffer) are added to the wells. The plates, incubated for 1 h, are read on an AlphaQuest plate reader

RON (human) = RON (human) (Homo sapiens, UniProt Q04912); test: RON kinase AlphaScreen assay (Km of ATP); format: biochemical; conditions: ATP at Km; at least duplicate experiments
Chain of RON (human) (Q04912 25-1400): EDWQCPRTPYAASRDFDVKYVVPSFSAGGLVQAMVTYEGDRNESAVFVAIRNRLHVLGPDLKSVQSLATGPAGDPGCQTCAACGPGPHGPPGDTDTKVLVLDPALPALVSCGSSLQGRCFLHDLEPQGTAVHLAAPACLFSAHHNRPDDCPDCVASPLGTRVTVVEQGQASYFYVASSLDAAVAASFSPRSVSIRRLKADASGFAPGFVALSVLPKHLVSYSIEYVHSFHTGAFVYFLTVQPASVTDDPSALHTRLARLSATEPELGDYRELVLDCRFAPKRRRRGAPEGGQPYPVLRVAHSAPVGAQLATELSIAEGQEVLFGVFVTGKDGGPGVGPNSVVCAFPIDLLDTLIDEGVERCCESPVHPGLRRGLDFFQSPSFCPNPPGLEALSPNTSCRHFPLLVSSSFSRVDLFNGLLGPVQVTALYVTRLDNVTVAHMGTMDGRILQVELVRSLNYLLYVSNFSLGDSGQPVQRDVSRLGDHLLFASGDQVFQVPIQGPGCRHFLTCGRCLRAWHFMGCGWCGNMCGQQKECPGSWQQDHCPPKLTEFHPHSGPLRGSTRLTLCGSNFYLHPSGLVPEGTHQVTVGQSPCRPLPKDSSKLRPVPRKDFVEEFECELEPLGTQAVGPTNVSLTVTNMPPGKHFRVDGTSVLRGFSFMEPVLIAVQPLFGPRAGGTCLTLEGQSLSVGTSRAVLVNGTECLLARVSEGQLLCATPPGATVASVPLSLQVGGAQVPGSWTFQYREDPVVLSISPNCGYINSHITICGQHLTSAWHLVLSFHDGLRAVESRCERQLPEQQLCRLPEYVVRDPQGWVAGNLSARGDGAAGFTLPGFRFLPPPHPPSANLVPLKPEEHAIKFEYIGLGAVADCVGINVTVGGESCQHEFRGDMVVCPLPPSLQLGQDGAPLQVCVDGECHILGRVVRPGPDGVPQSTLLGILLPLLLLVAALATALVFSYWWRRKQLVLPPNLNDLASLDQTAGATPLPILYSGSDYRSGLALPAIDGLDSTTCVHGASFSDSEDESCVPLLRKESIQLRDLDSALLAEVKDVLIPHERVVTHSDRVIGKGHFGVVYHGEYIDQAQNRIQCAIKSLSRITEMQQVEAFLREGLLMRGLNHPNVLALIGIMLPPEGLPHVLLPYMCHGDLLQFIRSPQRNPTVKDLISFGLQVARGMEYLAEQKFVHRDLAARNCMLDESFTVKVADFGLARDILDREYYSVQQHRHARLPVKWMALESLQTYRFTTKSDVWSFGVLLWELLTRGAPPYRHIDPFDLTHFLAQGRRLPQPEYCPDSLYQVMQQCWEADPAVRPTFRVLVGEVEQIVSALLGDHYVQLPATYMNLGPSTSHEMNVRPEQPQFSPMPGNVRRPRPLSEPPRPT
Procedure: as §1
RON (human)—Km of ATP: RON assay is performed in a 384 well assay containing 200 ng/μL biotinylated poly(Glu,Tyr), 0.334 mM vanadate, desired concentration of ATP optimized for the enzyme in assay buffer (50 mM HEPES (pH=7.4), 12.5 mM MgCl2 and 1% glycerol). Desired compound is added in a final concentration of 1% DMSO with control being vehicle of DMSO alone. RON is diluted to the optimized (on a lot-by-lot basis) concentration in an enzyme diluent buffer (50 mM HEPES pH=7.4, 12.5 mM MgCl2 and 1% glycerol, 0.03% Brij35, 0.3 mM EGTA, lmM DTT, and 0.003% BSA). Enzyme is added to initiate the reaction and incubated for 30 min at RT. In subdued light, appropriate amount of PT66 donor and acceptor beads (diluted 1:260 from manufacturer's provision in a 25 mM Tris HCl (pH=7.5), 200 mM NaCl, 100 mM EDTA, 0.3% BSA buffer) are added to the wells. The plates, incubated for 1 h, are read on an AlphaQuest plate reader.

Chain of MET (human) (P08581 25-1390): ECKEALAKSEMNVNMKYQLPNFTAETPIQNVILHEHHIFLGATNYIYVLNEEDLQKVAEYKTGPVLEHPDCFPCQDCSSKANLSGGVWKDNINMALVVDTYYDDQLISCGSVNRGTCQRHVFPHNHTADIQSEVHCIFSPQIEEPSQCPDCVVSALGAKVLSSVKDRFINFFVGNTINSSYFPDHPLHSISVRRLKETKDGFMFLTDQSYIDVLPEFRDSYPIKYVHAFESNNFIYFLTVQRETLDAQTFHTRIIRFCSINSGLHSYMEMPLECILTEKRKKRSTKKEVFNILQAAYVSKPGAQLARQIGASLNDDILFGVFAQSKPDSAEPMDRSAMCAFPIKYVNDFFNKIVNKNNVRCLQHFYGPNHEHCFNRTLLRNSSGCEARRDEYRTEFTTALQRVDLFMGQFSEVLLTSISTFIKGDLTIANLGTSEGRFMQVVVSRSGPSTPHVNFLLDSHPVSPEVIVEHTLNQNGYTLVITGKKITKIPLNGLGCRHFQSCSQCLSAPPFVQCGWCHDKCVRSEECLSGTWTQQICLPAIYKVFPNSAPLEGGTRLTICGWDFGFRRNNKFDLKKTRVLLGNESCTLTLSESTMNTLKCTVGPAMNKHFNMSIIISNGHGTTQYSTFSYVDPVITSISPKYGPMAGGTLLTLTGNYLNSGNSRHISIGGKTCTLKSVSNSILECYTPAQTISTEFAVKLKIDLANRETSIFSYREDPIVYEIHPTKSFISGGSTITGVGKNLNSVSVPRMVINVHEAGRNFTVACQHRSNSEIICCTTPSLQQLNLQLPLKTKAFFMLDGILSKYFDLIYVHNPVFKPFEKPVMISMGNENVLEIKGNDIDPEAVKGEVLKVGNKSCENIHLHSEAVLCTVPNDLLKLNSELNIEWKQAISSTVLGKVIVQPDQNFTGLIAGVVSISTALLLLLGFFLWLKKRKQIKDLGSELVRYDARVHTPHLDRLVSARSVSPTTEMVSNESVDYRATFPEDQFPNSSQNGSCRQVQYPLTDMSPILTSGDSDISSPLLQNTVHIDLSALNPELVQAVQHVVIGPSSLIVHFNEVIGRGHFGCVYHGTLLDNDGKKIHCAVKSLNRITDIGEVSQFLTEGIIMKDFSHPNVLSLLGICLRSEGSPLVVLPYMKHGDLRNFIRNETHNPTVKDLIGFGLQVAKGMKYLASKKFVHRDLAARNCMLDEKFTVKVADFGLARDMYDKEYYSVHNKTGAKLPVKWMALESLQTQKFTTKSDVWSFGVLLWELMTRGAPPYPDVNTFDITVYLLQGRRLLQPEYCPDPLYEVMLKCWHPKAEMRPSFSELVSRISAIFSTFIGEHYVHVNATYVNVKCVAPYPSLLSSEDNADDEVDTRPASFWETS

Row | SMILES | IC50 (MET (human)) | IC50 (RON (human))
1 | Nc1ncc(-c2cnn([C@@H]3CNC(CO)C3)c2)cc1-c1nc2ccccc2s1 (mixture of isomers) [Example 180, {(S)-4-[4-(6-Amino-5-benzothiazol-2-ylpyridin-3-yl)-pyrazol-1-yl]-pyrrolidin-2-yl}-methanol] | ≤ 100 nM | 100 to 1000 nM
2 | Cc1nc(-c2cc(-c3cnn(C4CCNCC4)c3)cnc2N)cc2ccccc12 [Example 1, 3-(1-Methylisoquinolin-3-yl)-5-(1-piperidin-4-yl-1H-pyrazol-4-yl)-pyridin-2-ylamine trihydrochloride] | 1000 to 20000 nM | 1000 to 20000 nM
3 | Cc1c(-c2cc(-c3cnn(C4CCNCC4)c3)cnc2N)ncc2ccccc12 [Example 2, 3-(4-Methylisoquinolin-3-yl)-5-(1-piperidin-4-yl-1H-pyrazol-4-yl)-pyridin-2-ylamine trihydrochloride] | 1000 to 20000 nM | > 20000 nM
4 | Nc1ncc(-c2cnn(C3CCNCC3)c2)cc1-c1cc2cccc(Cl)c2cn1 [Example 3, 3-(8-Chloroisoquinolin-3-yl)-5-(1-piperidin-4-yl-1H-pyrazol-4-yl)-pyridin-2-ylamine trihydrochloride] | ≤ 100 nM | ≤ 100 nM
5 | Cc1ccc2cnc(-c3cc(-c4cnn(C5CCNCC5)c4)cnc3N)cc2c1 [Example 4, 3-(6-Methylisoquinolin-3-yl)-5-(1-piperidin-4-yl-1H-pyrazol-4-yl)-pyridin-2-ylamine trihydrochloride] | 100 to 1000 nM | 1000 to 20000 nM
6 | Cc1cccc2cc(-c3cc(-c4cnn(C5CCNCC5)c4)cnc3N)ncc12 [Example 5, 3-(8-Methylisoquinolin-3-yl)-5-(1-piperidin-4-yl-1H-pyrazol-4-yl)-pyridin-2-ylamine trihydrochloride] | 100 to 1000 nM | 100 to 1000 nM
7 | Cc1ccc(F)c2cnc(-c3cc(-c4cnn(C5CCNCC5)c4)cnc3N)cc12 [Example 6, 3-(8-Fluoro-5-methylisoquinolin-3-yl)-5-(1-piperidin-4-yl-1H-pyrazol-4-yl)-pyridin-2-ylamine trihydrochloride] | 100 to 1000 nM | 100 to 1000 nM
8 | Nc1ncc(-c2cnn(C3CCNCC3)c2)cc1-c1cc2c(Br)ccc(F)c2cn1 [Example 7, 3-(5-Bromo-8-fluoroisoquinolin-3-yl)-5-(1-piperidin-4-yl-1H-pyrazol-4-yl)-pyridin-2-ylamine trihydrochloride] | ≤ 100 nM | 100 to 1000 nM
9 | Nc1ncc(-c2cnn(C3CCNCC3)c2)cc1-c1ncc2ccccc2c1F [Example 8, 3-(4-Fluoroisoquinolin-3-yl)-5-(1-piperidin-4-yl-1H-pyrazol-4-yl)-pyridin-2-ylamine trihydrochloride] | 1000 to 20000 nM | 1000 to 20000 nM
10 | Nc1ncc(-c2cnn(C3CCNCC3)c2)cc1-c1cc2c(Cl)ccc(Cl)c2cn1 [Example 9, 3-(5,8-Dichloroisoquinolin-3-yl)-5-(1-piperidin-4-yl-1H-pyrazol-4-yl)-pyridin-2-ylamine trihydrochloride] | ≤ 100 nM | 100 to 1000 nM
11 | Nc1ncc(-c2cnn(C3CCNCC3)c2)cc1-c1cc2c(F)ccc(F)c2cn1 [Example 10, 3-(5,8-Difluoroisoquinolin-3-yl)-5-(1-piperidin-4-yl-1H-pyrazol-4-yl)-pyridin-2-ylamine trihydrochloride] | 100 to 1000 nM | 1000 to 20000 nM
12 | Nc1ncc(-c2cnn(C3CCNCC3)c2)cc1-c1cc2c(Cl)ccc(F)c2cn1 [Example 11, 3-(5-Chloro-8-fluoroisoquinolin-3-yl)-5-(1-piperidin-4-yl-1H-pyrazol-4-yl)-pyridin-2-ylamine trihydrochloride] | ≤ 100 nM | 100 to 1000 nM
13 | COc1ccc(Cl)c2cc(-c3cc(-c4cnn(C5CCNCC5)c4)cnc3N)ncc12 [Example 12, 4-{4-[6-Amino-5-(5-chloro-8-methoxyisoquinolin-3-yl)-pyridin-3-yl]-pyrazol-1-yl}-piperidine trihydrochloride] | 100 to 1000 nM | 1000 to 20000 nM

— patent US8178668B2, “2-aminopyridine kinase inhibitors” (OSI Pharmaceuticals, LLC, priority 2008, dated 2012)
